A short description of data set [1]: Photostability order of commercial dyes. The class given is physicochemical. The note with it: derived from the references to Table 1. The text has this: Cytochem. 2003, 51, 1699-1712], and only in 2007 its structure has been reported [B. Agnew, K. R. Gee, T. G. Nyberg (Invitrogen), US Pat. 2007/0249014]. Along with rhodamines, the following substance classes were considered as leads for developing of the new fluorescent dyes: BODIPY® derivatives (represented by BODYPY® 630/650 in FIG. 4), carbopyronines (Atto 635 and 647), cyanine dyes (Cy® 5 and Alexa 647), structurally related hybrids of cyanine dyes and benzopyranes (DY-630/635/650) and oxazines (Evoblue 30). BODIPY® derivatives have a substantial drawback: sometimes, fluorescence intensity of their bioconjugates is not directly proportional to a number of labelled sites [R. P. Haugland, A Guide to Fluorescent Probes and Labelling Technologies, Invitrogen Corp., Carlsbad, 2005, p. 53]. Moreover, it is difficult to chemically modify a BODIPY residue in such a way that it becomes water-soluble and more photostable. Carbopyronines have been extensively studied by Drexhage et al. [e.g. A. Zilles, J. Arden-Jacob, K.-H. Drexhage, N. U. Kemnitzer, M. Hammers-Schneider (Atto-tec GmbH), WO 2005/003086 (13 Jan. 2005)]. The carbopyronine dye Atto 647N has been widely used for labelling in many “nanoscopic” studies. Quite recently first STED images of the living cells were recorded at a rate of 28 frames per seconds using this dye [V. Westphal, S. O. Rizzoli, M. A. Lauterbach, D. Kamin, R. Jahn, S. W. Hell, Science 2008, 320, 246-249]. In the course of this study, the movements of synaptic vesicles inside the axons of cultured neurons were recorded with a resolution of ca. 60 nm. […] However, it is not easy to further improve the properties of the carbopyronine dye Atto 647N and make it more hydrophilic. […] Lower photostability and moderate Φfl-values of cyanine dyes make them inappropriate as lead structures. Short lifetimes of the excited states and presumably low Φfl-values of oxazines (e.g. Evoblue 30), as well as their moderate photostability, make the optimization of their properties not very promising.

For data set [2] the following is noted: cited from earlier work.
A short description of data set [3]: Spectral properties of commercially available dyes (Table 1). The class given is physicochemical. The settings on record: commercial dyes.
The conditions of data set [4]: cited from earlier work. The source holds these as a separate data set.
Data set [5] is described as follows: Solubility and polarity of the dyes.
The conditions of data set [6]: 8 M urea solution; cited from earlier work.
Data set [7] in a line: Fluorescence quantum yield, Atto 633 as reference. The class given is physicochemical. The settings on record: Atto 633 as reference (Φfl = 64% in aqueous buffer). The text has this: Moreover, intersystem crossing rates (kISC) and rates of the T1→S0 transitions were also found to be the same for both deuterated and undeuterated substances (see ref. to Table 2).
Data set [8] can be described thus: UV-visible absorption and fluorescence spectra of the dyes of the invention. The data set is classed as physicochemical. On the procedure:
UV-visible absorption spectra were recorded on a Varian Cary 4000 UV-Vis spectrophotometer, and fluorescence spectra on a Varian Cary Eclipse fluorescence spectrophotometer. Reactions were carried out upon magnetic stirring in Schlenk flasks equipped with septa or reflux condensers with bubble-counters under argon using a standard manifold with vacuum and argon lines. All NMR spectra are referenced to tetramethylsilane as an internal standard (δ=0 ppm) using the signals of the residual protons of CHCl3 (7.26 ppm) in CDCl3, CHD2OD (3.31 ppm) in CD3OD, HOD (4.75 ppm) in D2O, [D5]acetone (2.04 ppm) in [D6]acetone or [D5]DMSO (2.50 ppm) in [D6]DMSO. Multiplicities of signals are described as follows: s=singlet, br. s=broad singlet, d=doublet, t=triplet, q=quartet, quint=quintet, m=multiplet, mc=centrosymmetrical multiplet. Coupling constants (J) are given in Hz. Multiplicities in the ^13C NMR spectra were determined by APT (Attached Proton Test) measurements. Low resolution mass spectra (electro spray ionization, ESI) were obtained with LCQ and ESI-TOF mass-spectrometers (MICROTOF (focus), Fa. Bruker). The MICROTOF spectrometer equipped with ESI ion source Apollo and direct injector with LC autosampler Agilent RR 1200 was used for obtaining high resolution mass spectra (ESI-HRMS). ESI-HRMS were obtained also on APEX IV spectrometer (Bruker). HPLC system (Knauer): Smartline pump 1000 (2×), UV detector 2500, column thermostat 4000 (25° C.), mixing chamber, injection valve with 20 and 100 μL loop for the analytical and preparative columns, respectively; 6-port-3-channel switching valve; analytical column: Eurospher-100 C18, 5 μm, 250×4 mm, 1.1 mL/min; preparative column: Eurospher-100-5 C18, 5 μm, 250×8 mm, 3.7 mL/min; solvent A: water+0.1% v/v trifluoroacetic acid (TFA); solvent B: MeCN+0.1% v/v TFA; detection at 636 nm (if not stated otherwise). Normal phase analytical TLC was performed on MERCK ready-to-use plates with silica gel 60 (F254) and reversed phase TLC—on RP-18W/UV254 precoated TLC plates (Macherey-Nagel). Preparative TLC was performed on MERCK HPTLC silica gel 60 plates (10×10 cm, layer thickness 0.2 mm). Column chromatography: MERCK silica gel, grade 60, 0.04-0.063 mm or Polygoprep 60-50 C18 (Macherey-Nagel).

A short description of data set [9]: Excited state lifetime and FCS study under single molecule conditions. The class given is physicochemical.
Data set [10] can be described thus: Chemical and storage stability of dyes and reactive derivatives. The class given is physicochemical.
Data set [11] in a line: physchem. The settings on record: water.
A short description of data set [12]: Chemical and storage stability of dyes and reactive derivatives. The data set is classed as physicochemical. The note with it: under Ar. The text has this: Usually, amino- or thiol reactive derivatives of the fluorescent dyes are used for labelling of proteins. For conjugation with amines, the free carboxy group needs to be activated by the formation of N-hydroxy(sulfo)succinimidyl esters, phenyl esters with electron-acceptor groups in the benzene ring or similar compounds with good leaving groups. […] Ester 8 partly decomposed in the course of chromatographic isolation using silica gel. Therefore, the reaction mixture containing the active ester 8 was used for labelling the lipids in their non-polar domain and other coupling procedures. […] They were isolated by reversed-phase HPLC using the gradient elution with aqueous acetonitrile with 0.1% (v/v) of TFA, lyophilized and stored at −20° C. under argon. Under these conditions, the content of the corresponding acids 6/6D in the very light dark blue voluminous solids increased from 3-5% up to 7-10% in 2 months. The higher stability of the NHS esters 9 and 10 may be explained by the absence of any nucleophilic counter ion. The maleimide derivative 11 has been prepared straight from compounds 9 and 10 by combining them in DMF with Et3N as base. It was also isolated by HPLC.

This is an account of results in patent US8580579B2, “Hydrophilic and lipophilic rhodamines for labelling and imaging” (Max-Planck-Gesellschaft zur Foerderung der Wissenschaften …, priority 2009, dated 2013).

Each structure is given as a SMILES string. Entries after “also recorded” stand apart in the source; their conditions may differ. Like-named read-outs stand apart in the source and are kept apart here.

What is called solubility is the dissolved amount per volume that the medium holds. A high value points to a readily soluble substance.

`CC[N+]1=c2cc3c(cc2C(C)CC1(C)C)=C(c1ccccc1C(=O)N(C)CCCC(=O)O)c1cc2c4c(c1C3(C)C)CCCN4CCC2.[O-][Cl+3]([O-])([O-])[O-]` (mixture of isomers) [Atto 647N]: the “order of the photoresistance” value in [1] is “Atto 633>Atto 647N>Alexa® 647>Alexa® 633>Cy® 5”. In addition, the Φfl in data set [2] (no solvent given in the cell) is recorded as 65%. Further, in data set [2] (solvent PBS), the “ε · 10^−5” value is recorded as 1.5 M^−1 cm^−1, the “λmax (abs.)” value is listed as 644 nm and the “λmax (fl.)” value was 669 nm. Besides, the τfl in [2] (solvent not given) is listed as 3.4 ns. Further, in [3], the Stokes shift was determined as 25 nm. The “Solubility (solvents)” value in data set [4] is on record as “DMF, DMSO”.

For `CCN(CC)CC.CCN(CC)CC.CN1c2cc3c(cc2-c2sc(S(=O)(=O)O)cc2C1(C)C)C(c1c(F)c(SCC(=O)O)cc(F)c1S(=O)(=O)[O-])=c1cc2c(cc1O3)=[N+](C)C(C)(C)c1cc(S(=O)(=O)O)sc1-2` [Alexa ® 633], in data set [1], the “order of the photoresistance” value is given as “Atto 633>Atto 647N>Alexa® 647>Alexa® 633>Cy® 5”. Further, in [2] (solvent MeOH), the “ε · 10^−5” value is given as 1.0 M^−1 cm^−1, the “λmax (abs.)” value was 632 nm and the “λmax (fl.)” value is 647 nm. Besides, the τfl in data set [2] (solvent not given) is 3.2 ns. Besides, the Stokes shift in [3] stood at 15 nm. Besides, the “Solubility (solvents)” value in data set [4] was “DMSO, H2O^3”.

Take `CC[N+]1=c2cc3c(cc2CCC1)=C(c1ccccc1C(=O)N(C)CCCC(=O)O)c1ccc(N(C)C)cc1C3(C)C` [Atto 633]: the “order of the photoresistance” value in data set [1] was “Atto 633>Atto 647N>Alexa® 647>Alexa® 633>Cy® 5”. Also, the τfl in data set [2] (H2O) is on record as 3.2 (H2O) ns. In addition, the Φfl in data set [2] (no solvent given in the cell) was 64%. Also, in [2] (solvent H2O), the “ε · 10^−5” value is 1.3 M^−1 cm^−1, the “λmax (abs.)” value was 629 nm and the “λmax (fl.)” value is recorded as 657 nm. Also, the “Solubility (solvents)” value in data set [4] is “DMF, DMSO,; also recorded: (H2O) MeCN^2”.

Consider `CC1=CC(C)(C)N2CCCc3c4c(cc1c32)C(c1c(F)c(F)c(F)c(F)c1C(=O)[O-])=c1cc2c3c(c1O4)CCC[N+]=3C(C)(C)C=C2C` [Compound 4], for which, in data set [5], the “Solubility (solvents)” value is given as “CHCl3, THF”; the polarity entry is reported as “non-polar”; the “solubility in organic solvents” value is on record as “soluble in most organic solvents”; the “solubility in water or aqueous buffers” value is “low solubility in water or aqueous buffers; also recorded: insoluble in water”. For the same compound, in data set [6], the absorption maximum is reported as 630 nm and the emission maximum is recorded as 655 nm. Besides, in data set [7], the Φfl in water was 63%. Moreover, in [8] (solvent MeOH), the “λmax (abs.)” value was 616 nm and the “λmax (fl.)” value amounted to 641 nm.

On to `[2H]C1=C(C([2H])([2H])S(=O)(=O)O)c2cc3c(c4c2N(CCC4)C1(C([2H])([2H])[2H])C([2H])([2H])[2H])Oc1c2c4c(cc1=C3c1c(F)c(F)c(F)c(F)c1C(=O)N(C)CCC(=O)O)C(C([2H])([2H])S(=O)(=O)[O-])=C([2H])C(C([2H])([2H])[2H])(C([2H])([2H])[2H])[N+]=4CCC2` [Compound 6D], for which, in data set [5], the polarity result is “polar; also recorded: hydrophilic” and the “solubility in water or aqueous buffers” value was “soluble in water or aqueous buffers”. In addition, the Φfl in water in data set [7] was 78%. Further, the Stokes shift in data set [8] (dyes of the invention) was determined as 23 nm. Moreover, in [8] (solvent H2O), the “ε · 10^−5” value is reported as 0.92 M^−1 cm^−1, the “λmax (abs.)” value was found to be 637 nm and the “λmax (fl.)” value is 660 nm. The “τfl (excited state lifetime)” value in data set [9] was 3.67^21 ns. Further, the “stability in methanol or methanol-containing solutions” value in data set [10] was “rapid esterification of the β-alanine fragment with methanol”. The compound also gave a solubility in data set [11] above 100 mM.

In the case of `CN(CCC(=O)NCCN1C(=O)C=CC1=O)C(=O)c1c(F)c(F)c(F)c(F)c1C1=c2cc3c4c(c2Oc2c1cc1c5c2CCCN5C(C)(C)C=C1CS(=O)(=O)O)CCC[N+]=4C(C)(C)C=C3CS(=O)(=O)O` [Compound 11], the “solubility in water or aqueous buffers” value in [5] is reported as “soluble in water”. Also, the “stability in a solid state” value in data set [12] is “stable”. For the same compound, in [10], the “stability in methanol or methanol-containing solutions” value is “decomposes; also recorded: sensitive to methanol even at room temperature”.

Take `CC[N+]1=C(C=CC=CC=C2N(CCCCCC(=O)O)c3ccc(S(=O)(=O)O)cc3C2(C)C)C(C)(C)c2cc(S(=O)(=O)[O-])ccc21` [Cy ® 5]: the “order of the photoresistance” value in data set [1] is listed as “Atto 633>Atto 647N>Alexa® 647>Alexa® 633>Cy® 5”. Further, the τfl in data set [2] (H2O) is on record as 0.9 (H2O)^1 ns. In data set [2] (PBS), the Φfl is 27% and the τfl is on record as 1 (PBS)^11 ns. Moreover, in data set [2] (solvent H2O), the “ε · 10^−5” value is reported as 2.5 M^−1 cm^−1, the “λmax (abs.)” value is 647 nm and the “λmax (fl.)” value is listed as 663 nm.
